“And” between values parts separate entries of the source, which are not always exact repeats. Identical values can stand only once.
Tests used:
NMDA receptor = experiment: Competition binding, [^3 H]CGP 39653, mouse cortical membranes; conditions: for Effect on binding of [^3 H]CGP 39653: 0.01 to 100 uM
Procedure: (§1) Affinity of selected reference drugs for the NMDA receptor
(§2) labeled with [^3 H]CGP 39653 and the PCP receptor
(§3) labeled with [^3 H]MK-801, relatively to the effect of
(§4) NOS inhibitors, in mouse cortical membranes.
(§5) Competition binding assays were carried out using 14 nM [^3 H]CGP 39653 and 2 nM [^3 H]MK-801. L-NAME and NO-Arg at a concentration range of 0.01 to 100 uM, each, had no effect (N.E.) on the binding of the two tritium labeled ligands. Data represents the mean ±S.D. of three experiments.

PCP receptor = experiment: Competition binding, [^3 H]MK-801, mouse cortical membranes; conditions: for [^3 H]MK-801 Ki / Ki: 2 nM [^3 H]MK-801, mouse cortical membranes, mean ± S.D. of three experiments, N.E. = no effect at 0.01 to 100 uM; for Effect on binding of [^3 H]MK-801: 0.01 to 100 uM
Procedure: as §1, §2, §3, §4, §5

[1] = system: cocaine induced seizures and lethality in Swiss-Webster mice; experiment: Effect of repeated cocaine administration on convulsive response and survival of mice pretreated with saline or NOS inhibitor; format: in vivo; conditions: for Protection against development of convulsions / Protection against lethal effects of cocaine: 60 min before cocaine 45 mg/kg/day, 7 days; for Convulsions (number of animals that seized) / Convulsions (percentage) / Survival (number of animals that survived) / Survival (percentage): saline or L-NAME (100 mg/kg) 60 min before cocaine 45 mg/kg i.p. daily
From the text: In the search for safer agents that may be useful in treating cocaine induced toxicity, Applicant has discovered that drugs that block the enzyme nitric oxide (NO) synthase completely abolish cocaine induced seizures and lethality in mice (see TABLE 1). NO synthase inhibitors such as N-nitro-L-arginine methyl ester (L-NAME) and N-nitro-L-arginine (NO-Arg) are known drugs used clinically for the treatment of septic shock. […] Thus, it is though that NO, a putative neurotransmitter in the brain, is involved in DA-receptor mediated neurotoxicity. Applicant's recent studies are the first to document that NOS inhibitors have protective effects against cocaine induced toxicity. FIG. 1 and FIG. 2. Briefly, Swiss-Webster mice were pretreated with either saline, L-NAME (100 mg/kg/day) or NO-Arg (25 mg/kg/day) 60 min before the administration of cocaine (45 mg/kg/day) for 7 days. The progressive increase in the adverse and toxic effects of repetitive cocaine was manifested by an increase in the convulsive and lethal responses to cocaine. Following the 7th day of saline/cocaine treatment only 60% of the animals survived, and 100% of the animals seized.
Effect of repeated cocaine administration on convulsive
response and survival of Swiss-Webster mice pretreated with
either saline or L-NAME. Mice received a Single i.p.
injection of cocaine (45 mg/kg) each day 60 min after
pretreatment with either saline or L-NAME (100 mg/kg). Data
is expressed as the total number of animals that seized
and survived following the drugs treatment in three separate
experiments. Numbers in parentheses indicate percentage.

[2] = 14 nM [^3 H]CGP 39653, mouse cortical membranes, mean ± S.D. of three experiments, N.E. = no effect at 0.01 to 100 uM

SMILES: NC(CCCP(=O)(O)O)C(=O)O (stereo not drawn) [AP-5]
- Ki (NMDA receptor; [2]): 2230 ± 180 nM

SMILES: COC(=O)[C@@H](N)CCCN=C(N)N[N+](=O)[O-] [L-NAME, N-nitro-L-arginine methyl ester]
- [^3 H]MK-801 Ki (PCP receptor): N.E.
- Effect on binding of [^3 H]MK-801 (PCP receptor): no effect
- [^3 H]CGP 39653 Ki (NMDA receptor; [2]): N.E.
- Effect on binding of [^3 H]CGP 39653 (NMDA receptor): no effect
- Protection against development of convulsions ([1]; L-NAME 100 mg/kg/day): completely protected
- Protection against lethal effects of cocaine ([1]; L-NAME 100 mg/kg/day): completely protected
- Convulsions (number of animals that seized) ([1]; day 1): 0/30
- Convulsions (percentage) ([1]; day 1): 0%
- Survival (number of animals that survived) ([1]; day 1): 30/30
- Survival (percentage) ([1]; day 1): 100%
- Convulsions (number of animals that seized) ([1]; day 2): 1/30
- Convulsions (percentage) ([1]; day 2): 3%
- Survival (number of animals that survived) ([1]; day 2): 30/30
- Survival (percentage) ([1]; day 2): 100%
- Convulsions (number of animals that seized) ([1]; day 3): 2/30
- Convulsions (percentage) ([1]; day 3): 6%
- Survival (number of animals that survived) ([1]; day 3): 30/30
- Survival (percentage) ([1]; day 3): 100%
- Convulsions (number of animals that seized) ([1]; day 4): 0/30
- Convulsions (percentage) ([1]; day 4): 0%
- Survival (number of animals that survived) ([1]; day 4): 30/30
- Survival (percentage) ([1]; day 4): 100%
- Convulsions (number of animals that seized) ([1]; day 5): 1/30
- Convulsions (percentage) ([1]; day 5): 3%
- Survival (number of animals that survived) ([1]; day 5): 30/30
- Survival (percentage) ([1]; day 5): 100%
- Convulsions (number of animals that seized) ([1]; day 6): 1/30
- Convulsions (percentage) ([1]; day 6): 3%
- Survival (number of animals that survived) ([1]; day 6): 30/30
- Survival (percentage) ([1]; day 6): 100%
- Convulsions (number of animals that seized) ([1]; day 7): 0/30
- Convulsions (percentage) ([1]; day 7): 0%
- Survival (number of animals that survived) ([1]; day 7): 30/30
- Survival (percentage) ([1]; day 7): 100%

SMILES: C[C@]12N[C@H](Cc3ccccc31)c1ccccc12 [MK-801]
- Ki (PCP receptor): 3 ± 0.2 nM

SMILES: NC(=NCCC[C@H](N)C(=O)O)N[N+](=O)[O-] [NO-Arg, N-nitro-L-arginine]
- [^3 H]MK-801 Ki (PCP receptor): N.E.
- Effect on binding of [^3 H]MK-801 (PCP receptor): no effect
- [^3 H]CGP 39653 Ki (NMDA receptor; [2]): N.E.
- Effect on binding of [^3 H]CGP 39653 (NMDA receptor): no effect
- Protection against development of convulsions ([1]; NO-Arg 25 mg/kg/day): completely protected
- Protection against lethal effects of cocaine ([1]; NO-Arg 25 mg/kg/day): completely protected

SMILES: c1ccc(C2(N3CCCCC3)CCCCC2)cc1 [PCP]
- Ki (PCP receptor): 55 ± 4 nM

SMILES: COC(=O)[C@H]1[C@@H](OC(=O)c2ccccc2)C[C@@H]2CC[C@H]1N2C [cocaine]
- Convulsions had occurred (in words) ([1]; by the seventh day, uniform daily doses of cocaine): in all animals
- Convulsions (number of animals that seized) ([1]; day 1): 4/36
- Convulsions (percentage) ([1]; day 1): 11%
- Survival (number of animals that survived) ([1]; day 1): 36/36
- Survival (percentage) ([1]; day 1): 100%
- Convulsions (number of animals that seized) ([1]; day 2): 14/36
- Convulsions (percentage) ([1]; day 2): 38%
- Survival (number of animals that survived) ([1]; day 2): 36/36
- Survival (percentage) ([1]; day 2): 100%
- Convulsions (number of animals that seized) ([1]; day 3): 20/36
- Convulsions (percentage) ([1]; day 3): 55%
- Survival (number of animals that survived) ([1]; day 3): 36/36
- Survival (percentage) ([1]; day 3): 100%
- Convulsions (number of animals that seized) ([1]; day 4): 22/34
- Convulsions (percentage) ([1]; day 4): 65%
- Survival (number of animals that survived) ([1]; day 4): 34/36
- Survival (percentage) ([1]; day 4): 94%
- Convulsions (number of animals that seized) ([1]; day 5): 24/33
- Convulsions (percentage) ([1]; day 5): 72%
- Survival (number of animals that survived) ([1]; day 5): 33/36
- Survival (percentage) ([1]; day 5): 91%
- Convulsions (number of animals that seized) ([1]; day 6): 26/27
- Convulsions (percentage) ([1]; day 6): 96%
- Survival (number of animals that survived) ([1]; day 6): 27/36
- Survival (percentage) ([1]; day 6): 75%
- Convulsions (number of animals that seized) ([1]; day 7): 22/22
- Convulsions (percentage) ([1]; day 7): 100%
- Survival (number of animals that survived) ([1]; day 7): 22/36
- Survival (percentage) ([1]; day 7): 60% and 61%

From patent publication US5441982A, “Therapeutics for management of cocaine induced toxicity” (priority 1993, dated 1995)
